From paper PMC8400955 (Pharmaceuticals, 2021)
“Also recorded” adds a separate entry of the source. Read-outs that look alike come from different tables or passages of the source.

Experiments:
[1] = 4-week repeat-dose toxicity/TK study in rats; type: in vivo, Sprague Dawley rats; conditions: for AUC(0-t) / Cmax / Tmax: Sprague Dawley (Crl: CD (SD)), rat, plasma, po
Experimental: The PK of ZB716 was investigated in a 4-week repeat-dose toxicity study in rats. Groups of Sprague Dawley rats (n = 10/sex/group; n = 3/sex/TK group) were orally administered ZB716 (5% EtOH, 15% PG, 5% Solutol, and 75% of 40% HP-β-CD in DI water) at dose levels of 25, 100, and 400 mg/kg/day for 4 weeks. The plasma concentration of ZB716 was measured at various times through to 24 h post-dose on days 1 and 28.
Four-to-six-week-old Sprague Dawley rats (Crl: CD (SD)) (SPF/VAF) were purchased from Beijing Vital River Laboratory Animal Technology, Co. Ltd.). Six-month-old beagle dogs were purchased from Beijing Marshall Biotechnology Co. Ltd. Animals were quarantined/acclimated for 2–6 weeks prior to dose initiation. Both Sprague Dawley rats and beagle dogs were given oral administration of ZB716 (20% PG, 5% Solutol, and 75% of 40% HP-β-CD in water) at different dose levels. After treatment with the test articles, whole blood was collected from each study animal by puncture of the tail vein (0.4 mL of whole blood from rats) and/or the peripheral vein (0.6 mL of whole blood from dogs) into tubes containing K2EDTA at each timepoint: pre-dose, and 0.5, 1, 2, 4, 8, and 24 h post-dose. The plasma samples were divided into 2 aliquots (approximately equal in volume) and stored frozen at −75 ± 15 °C within 2 h of the collection until analysis at Pharmaron, China.
The stock solution of ZB716 (5.0 mg/mL) and ZB716-d6 (1 mg/mL) in ACN:DI Water = 1:1 was prepared and stored at −20 ± 5 °C. The desired serial concentrations of working reference analyte solutions were achieved by diluting a stock analyte solution with 50% acetonitrile (0.1% formic acid) in water solution. The bioanalytical LC–MS/MS method was validated for quantitative determination of ZB716 in Sprague Dawley rat plasma and beagle dog plasma, with acceptable selectivity, sensitivity, calibration curve, precision, and accuracy. This method is applicable for the determination of ZB716 in Sprague Dawley rat plasma and beagle dog plasma, with a lower limit of quantification of 20.0 ng/mL, and an upper limit of quantification of 10,000 ng/mL.
Five microliters of diluted supernatant was injected into the LC–MS/MS system (Shimadzu LC30AD HPLC system with a SynergiTM 4 μm Fusion-RP 80 Å (50 × 2 mm) column using gradient elution and a Triple Quad 5500 mass spectrometer) for quantitative analysis. The mobile phases used were 0.1% formic acid in deionized water and 0.1% formic acid in acetonitrile. The pharmacokinetic parameters T1/2 (the biological half-life), Cmax (maximal concentration), Tmax (time at which Cmax is observed), and AUC (area under the plasma concentration–time curve) were calculated from the plasma concentration versus time data using WinNonlin (Phoenix^TM, version 8.1, Mountain View, CA, USA). All PK studies were conducted by Pharmaron in Beijing, China.

Caco-2 cell monolayers = assay: Bidirectional permeability across Caco-2 cell monolayers; type: in vitro ADME; conditions: Caco-2, according to the results at 15 μM
Experimental: (§1) The bidirectional permeability and absorption mechanism of ZB716 was evaluated across Caco-2 cell monolayers.
(§2) The apical-to-basolateral (A–B) and basolateral-to-apical (B–A) transport of ZB716 in HBSS (25 mM HEPES) with 1% BSA was measured across Caco-2 cell monolayers. […] All incubations were performed in triplicate, and the integrity of the cell monolayers was confirmed using the marker Lucifer yellow.
(§3) The slope, k, was determined by linear
(§4) using the following equation: […]
(§5) 1.4 Intestinal Mucosal Permeation of ZB716
(§6) Papp= VAArea х timeх ሾdrugሿreceiverሾdrugሿinitial,donor

[2] = as above; type: in vitro ADME; conditions: human; for recovery at 120 min, 1 μM: Caco-2, Caco-2, 1 μM; for recovery at 120 min, 5 μM: Caco-2, Caco-2, 5 μM; for recovery at 120 min, 15 μM: Caco-2, Caco-2, 15 μM
Experimental: as §1, §2, §3, §4, §5, §6

CYP3A4 = CYP3A4 (Homo sapiens, UniProt P08684); assay: CYP inhibition in human liver microsomes, CYP3A4; type: in vitro ADME; set-up: 2D6, and 3A4) in human liver microsomes (0.2 mg/mL) in the presence of NADPH; from tissue; host or cells: human liver microsomes; conditions: HLM
Experimental: . The inhibition of CYP2B6 and 3A4 (when midazolam was used as the substrate) by ZB716 was not observed. The inhibitory potential of ZB716 on human CYP enzyme activities appears relatively low.
The final concentrations of ZB716 in the incubation system were 0, 0.05, 0.15, 0.5, 1.5, 5, and 15 µM (final organic solvent concentration ≤ 1%). […] . […] The concentrations of the isoform-specific metabolites derived from marker substrates were measured by UPLC–MS/MS. The IC50 values were calculated from the percentages of the rate of the metabolite formation relative to non-inhibited controls vs. the concentrations of ZB716 or positive control inhibitors. All incubations were performed in triplicate. The mean of the enzyme activity (% of non-inhibited control) for each concentration was plotted against the log inhibitor concentration, and fitted to an IC50 curve.

[3] = female, 25 mg/kg/day, day 1, PO 25 mg/kg/day, Female
[4] = female, 25 mg/kg/day, day 28, PO 25 mg/kg/day, Female
[5] = female, 100 mg/kg/day, day 1, PO 100 mg/kg/day, Female
[6] = female, 100 mg/kg/day, day 28, PO 100 mg/kg/day, Female
[7] = female, 400 mg/kg/day, day 1, PO 400 mg/kg/day, Female
[8] = female, 400 mg/kg/day, day 28, PO 400 mg/kg/day, Female
[9] = male, 25 mg/kg/day, day 1, PO 25 mg/kg/day, Male
[10] = male, 25 mg/kg/day, day 28, PO 25 mg/kg/day, Male
[11] = male, 100 mg/kg/day, day 1, PO 100 mg/kg/day, Male
[12] = male, 100 mg/kg/day, day 28, PO 100 mg/kg/day, Male
[13] = male, 400 mg/kg/day, day 1, PO 400 mg/kg/day, Male
[14] = male, 400 mg/kg/day, day 28, PO 400 mg/kg/day, Male

Chain of CYP3A4 (P08684 whole entry): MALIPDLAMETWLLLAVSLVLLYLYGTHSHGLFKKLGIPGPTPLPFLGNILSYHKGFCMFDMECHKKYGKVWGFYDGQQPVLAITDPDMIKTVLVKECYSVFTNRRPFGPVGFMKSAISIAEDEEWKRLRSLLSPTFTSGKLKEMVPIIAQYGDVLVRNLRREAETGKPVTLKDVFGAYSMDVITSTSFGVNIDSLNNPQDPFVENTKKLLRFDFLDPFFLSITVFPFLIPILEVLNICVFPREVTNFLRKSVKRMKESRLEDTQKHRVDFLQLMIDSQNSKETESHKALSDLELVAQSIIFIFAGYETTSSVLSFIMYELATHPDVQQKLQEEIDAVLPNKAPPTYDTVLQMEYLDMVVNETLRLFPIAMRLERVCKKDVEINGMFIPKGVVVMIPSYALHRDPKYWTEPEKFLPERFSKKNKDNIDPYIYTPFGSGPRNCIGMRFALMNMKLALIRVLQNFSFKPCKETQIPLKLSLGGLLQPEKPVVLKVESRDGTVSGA

For `C[C@]12CC[C@@H]3c4ccc(B(O)O)cc4C[C@@H](CCCCCCCCC[S+]([O-])CCCC(F)(F)C(F)(F)F)[C@H]3[C@@H]1CC[C@@H]2O` (stereo partly shown) [ZB716, fulvestrant-3-boronic acid], which “test-article-related mortality or moribundity” value ([1]; PO 25, 100, 400 mg/kg/day for 4 weeks) is on record?
Its value is “no test-article-related mortality or moribundity”.

And the AUC(0-t) [1, 3]?
The AUC(0-t) was 7700 ng·h/mL.

And the Cmax [1, 3]?
Its Cmax is 1310 ng/mL.

And the Tmax [1, 3]?
The Tmax was 1 h.

What about the AUC(0-t) [1, 4] of the same molecule?
The AUC(0-t) was 8040 ng·h/mL.

And the Cmax [1, 4]?
The Cmax was 1770 ng/mL.

What about the Tmax [1, 4] of the same molecule?
The Tmax was 1 h.

What about the AUC(0-t) [1, 5] of the same molecule?
Its AUC(0-t) is 42200 ng·h/mL.

And the Cmax [1, 5]?
The Cmax was 3200 ng/mL.

What about the Tmax [1, 5] of the same molecule?
Its Tmax is 1 h.

And the AUC(0-t) [1, 6]?
The AUC(0-t) was 24500 ng·h/mL.

And the Cmax [1, 6]?
Its Cmax is 3850 ng/mL.

And the Tmax [1, 6]?
The Tmax was 1 h.

And the AUC(0-t) [1, 7]?
Its AUC(0-t) is 121000 ng·h/mL.

What about the Cmax [1, 7] of the same molecule?
The Cmax was 11900 ng/mL.

And the Tmax [1, 7]?
Its Tmax is 2 h.

And the AUC(0-t) [1, 8]?
The AUC(0-t) was 51800 ng·h/mL.

And the Cmax [1, 8]?
The Cmax was 4850 ng/mL.

And the Tmax [1, 8]?
The Tmax was 2 h.

And the AUC(0-t) [1, 9]?
Its AUC(0-t) is 5400 ng·h/mL.

What about the Cmax [1, 9] of the same molecule?
Its Cmax is 1040 ng/mL.

And the Tmax [1, 9]?
The Tmax was 0.5 h.

And the AUC(0-t) [1, 10]?
Its AUC(0-t) is 4750 ng·h/mL.

What about the Cmax [1, 10] of the same molecule?
Its Cmax is 1310 ng/mL.

And the Tmax [1, 10]?
Its Tmax is 0.5 h.

And the AUC(0-t) [1, 11]?
Its AUC(0-t) is 15700 ng·h/mL.

And the Cmax [1, 11]?
Its Cmax is 1870 ng/mL.

And the Tmax [1, 11]?
The Tmax was 1 h.

And the AUC(0-t) [1, 12]?
The AUC(0-t) was 20100 ng·h/mL.

What about the Cmax [1, 12] of the same molecule?
The Cmax was 2840 ng/mL.

What about the Tmax [1, 12] of the same molecule?
Its Tmax is 0.5 h.

And the AUC(0-t) [1, 13]?
The AUC(0-t) was 52400 ng·h/mL.

What about the Cmax [1, 13] of the same molecule?
Its Cmax is 3400 ng/mL.

And the Tmax [1, 13]?
Its Tmax is 1 h.

And the AUC(0-t) [1, 14]?
The AUC(0-t) was 50700 ng·h/mL.

And the Cmax [1, 14]?
Its Cmax is 4060 ng/mL.

What about the Tmax [1, 14] of the same molecule?
The Tmax was 2 h.

What about the permeability class (Caco-2 cell monolayers) of the same molecule?
Its permeability class is “low permeability”.

What about the recovery at 120 min, 1 μM ([2]; read-out: Recovery A to B) of the same molecule?
The recovery at 120 min, 1 μM was less than 66.6%.

And the recovery at 120 min, 1 μM ([2]; read-out: Recovery B to A)?
The recovery at 120 min, 1 μM was 66.5 ± 0.7%.

And the recovery at 120 min, 5 μM ([2]; read-out: Recovery A to B)?
Its recovery at 120 min, 5 μM is less than 67%.

What about the recovery at 120 min, 5 μM ([2]; read-out: Recovery B to A) of the same molecule?
Its recovery at 120 min, 5 μM is 73.7 ± 1.5%.

And the recovery at 120 min, 15 μM ([2]; read-out: Recovery A to B)?
The recovery at 120 min, 15 μM was 75.7 ± 2%.

What about the recovery at 120 min, 15 μM ([2]; read-out: Recovery B to A) of the same molecule?
Its recovery at 120 min, 15 μM is 84.2 ± 4.8%.

And the Papp A→B at 120 min, 1 μM ([2]; Caco-2, 1 μM)?
Its Papp A→B at 120 min, 1 μM is less than 0.778 ×10⁻⁶ cm/s.

And the Papp B→A at 120 min, 1 μM ([2]; Caco-2, 1 μM)?
Its Papp B→A at 120 min, 1 μM is 0.747 ± 0.0316 ×10⁻⁶ cm/s.

And the efflux ratio at 120 min, 1 μM ([2]; Caco-2, 1 μM)?
Its efflux ratio at 120 min, 1 μM is greater than 0.935.

And the Papp A→B at 120 min, 5 μM ([2]; Caco-2, 5 μM)?
Its Papp A→B at 120 min, 5 μM is less than 0.159 ×10⁻⁶ cm/s.

And the Papp B→A at 120 min, 5 μM ([2]; Caco-2, 5 μM)?
Its Papp B→A at 120 min, 5 μM is 0.82 ± 0.127 ×10⁻⁶ cm/s.

What about the efflux ratio at 120 min, 5 μM ([2]; Caco-2, 5 μM) of the same molecule?
Its efflux ratio at 120 min, 5 μM is greater than 4.55.

What about the Papp A→B at 120 min, 15 μM ([2]; Caco-2, 15 μM) of the same molecule?
Its Papp A→B at 120 min, 15 μM is 0.188 ± 0.021 ×10⁻⁶ cm/s.

What about the Papp B→A at 120 min, 15 μM ([2]; Caco-2, 15 μM) of the same molecule?
Its Papp B→A at 120 min, 15 μM is 0.534 ± 0.028 ×10⁻⁶ cm/s.

What about the efflux ratio at 120 min, 15 μM ([2]; Caco-2, 15 μM) of the same molecule?
Its efflux ratio at 120 min, 15 μM is 2.87 ± 0.49.

And the IC50 (CYP3A4; CYP3A4-M, marker substrate Midazolam)?
The IC50 was “not observed; also recorded: No Inhibition”.

What about the IC50 (CYP3A4; CYP3A4-T, marker substrate Testosterone, read-out: IC50) of the same molecule?
The IC50 was 11.2 µM.
